Reference: US20160021921A1, “PRETERM INFANT NUTRITIONAL COMPOSITIONS CONTAINING BETA-HYDROXY-BETA-METHYLBUTYRIC ACID” (ABBOTT LABORATORIES, priority 2013, published 2016)
Entries after “also recorded” stand apart in the source; their conditions may differ.

Columns and labels:
Assay type in all cases: in vivo, neonatal pigs
[1] = test system: protein synthesis in skeletal muscles (longissimus dorsi, gastrocnemius, soleus, diaphragm); test: Fractional protein synthesis rate in skeletal muscles, L[4-3H]phenylalanine flooding dose
Method: (§1) Overnight fasted neonatal pigs (5-7 days old) were infused with HMB at 0, 20, 100, or 400 μmol·kg^−1·hr^−1 HMB. Blood plasma concentrations of the following circulating substrates were measured.
(§2) At the end of the infusion, the piglets were sacrificed and the fractional protein synthesis rates were measured by measuring ^3H incorporation into protein fractions after a flooding dose of L[4-^3H]phenylalanine using the method set forth in Garlick, P. J., “A rapid and convenient technique for measuring the rate of protein synthesis in tissues by injection of [3H]Phenylalanine,” Biochem J (1980), Vol. 192, 719-723. Activation of translation initiation was measured in the stomach, duodenum, jejunum, colon, pancreas, kidney, brain and skin. The abundance of intracellular proteins involved in signaling of protein synthesis and in processes related to protein degradation was measured in tissue homogenates by immunoblotting using commercially available antibodies.

amino acid transporters = test: Level of amino acid transporters in piglet tissues; details: HMB-infused piglets
Method: as §2

e1F4E•e1F4G complex = test: Formation of the active e1F4E•e1F4G complex in muscles (FIG. 11); details: one hour
Method: as §1, §2

eEF2 = test: Phosphorylation of eEF2 in muscles, immunoblotting; details: one hour
Method: as §1, §2

Atrogin-1 = test: Expression of Atrogin-1 in muscles, immunoblotting; details: one hour
Method: as §1, §2

LC3-II/LC3-I = test: Ratio of LC3-II/LC3-I in muscles (autophagy/lysosomal protein degradation); details: one hour
Method: as §1, §2

MURF1 = test: Expression of MURF1 in muscles, immunoblotting; details: one hour
Method: as §1, §2

[2] = test system: protein synthesis in the lung and spleen; test: Fractional protein synthesis rate in lung and spleen; details: 20 μmol·kg^−1·hr^−1 HMB for one hour
Method: as §1, §2

S6K1 = test: Phosphorylation of S6K1 in muscles, immunoblotting; details: one hour
Method: as §1, §2

4EBP1 = test: Phosphorylation of 4EBP1 in muscles, immunoblotting; details: one hour
Method: as §1, §2

elF2α = test: Phosphorylation of elF2α in muscles, immunoblotting; details: one hour
Method: as §1, §2

[3] = 20 μmol·kg^−1·hr^−1 HMB, diaphragm
[4] = 20 μmol·kg^−1·hr^−1 HMB, longissimus dorsi, gastrocnemius, soleus
[5] = 100 μmol·kg^−1·hr^−1 HMB, diaphragm
[6] = 100 μmol·kg^−1·hr^−1 HMB, longissimus dorsi, gastrocnemius, soleus

CC(C)(O)CC(=O)O [HMB, beta-hydroxy-beta-methylbutyric acid]
fractional rate of protein synthesis ([1]; 20 μmol·kg^−1·hr^−1 HMB, longissimus dorsi, gastrocnemius, soleus, diaphragm, P<0.05): increased; also recorded: greatest impact
fractional rate of protein synthesis ([1]; 100 μmol·kg^−1·hr^−1 HMB, gastrocnemius, soleus, diaphragm): not significantly
fractional rate of protein synthesis ([1]; 100 μmol·kg^−1·hr^−1 HMB, longissimus dorsi muscle, P<0.05): increased
fractional rate of protein synthesis ([1]; 400 μmol·kg^−1·hr^−1 HMB, skeletal muscles): no significant effect; also recorded: least impact
effectiveness in increasing protein synthesis compared with leucine ([1]; HMB 20, 100 or 400 vs leucine 400 μmol·kg^−1·hr^−1, longissimus dorsi, gastrocnemius, soleus, diaphragm, duodenum, brain): equal to or more effective; also recorded: as effective as leucine
level of amino acid transporters (amino acid transporters): did not affect
formation of active eIF4E•eIF4G complex (e1F4E•e1F4G complex; [3]): increased
formation of active eIF4E•eIF4G complex (e1F4E•e1F4G complex; [4]): increased
formation of active eIF4E•eIF4G complex (e1F4E•e1F4G complex; [5]): not
formation of active eIF4E•eIF4G complex (e1F4E•e1F4G complex; [6]): increased
phosphorylation of eEF2 (eEF2; 20 μmol·kg^−1·hr^−1 HMB): did not affect
phosphorylation of eEF2 (eEF2; 100 μmol·kg^−1·hr^−1 HMB): did not affect
expression of Atrogin-1 (Atrogin-1; 20 μmol·kg^−1·hr^−1 HMB): did not affect
expression of Atrogin-1 (Atrogin-1; 100 μmol·kg^−1·hr^−1 HMB): did not affect
ratio of LC3-II/LC3-I (LC3-II/LC3-I; 20 μmol·kg^−1·hr^−1 HMB): did not affect
ratio of LC3-II/LC3-I (LC3-II/LC3-I; 100 μmol·kg^−1·hr^−1 HMB): did not affect
expression of MURF1 (MURF1; 20 μmol·kg^−1·hr^−1 HMB): did not affect
expression of MURF1 (MURF1; 100 μmol·kg^−1·hr^−1 HMB): did not affect
fractional rate of protein synthesis in lung and spleen [2]: increased
phosphorylation of S6K1 (S6K1; [3]): increased
phosphorylation of S6K1 (S6K1; [4]): increased
phosphorylation of S6K1 (S6K1; [5]): not
phosphorylation of S6K1 (S6K1; [6]): increased
phosphorylation of 4EBP1 (4EBP1; [3]): increased
phosphorylation of 4EBP1 (4EBP1; [4]): increased
phosphorylation of 4EBP1 (4EBP1; [5]): not
phosphorylation of 4EBP1 (4EBP1; [6]): increased
phosphorylation of elF2a (elF2α; 20 μmol·kg^−1·hr^−1 HMB): did not affect
phosphorylation of elF2a (elF2α; 100 μmol·kg^−1·hr^−1 HMB): did not affect
